In patent US7138361B2, “Herbicidal heterocycles” (E. I. du Pont de Nemours and Company, priority 2000, dated 2006):

What was measured:
Type in all cases: in vivo
[1] = tested on: crabgrass (Digitaria sanguinalis); assay: Test C preemergence; settings: for Plant response rating (0 to 100), Crabgrass: visual evaluation after 12 to 14 days
In short: (§1)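 Pre- and postemergence treatments used a non-phytotoxic solvent/surfactant formulation; post-treated plants measured 2 to 18 cm. Greenhouse hold 12–14 d; % control estimated visually relative to controls.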

[2] = tested on: cocklebur (Xanthium strumarium); assay: Test C preemergence; settings: for Plant response rating (0 to 100), Cocklebur: visual evaluation after 12 to 14 days
In short: as §1

[3] = tested on: velvetleaf (Abutilon theophrasti); assay: Test C preemergence; settings: for Plant response rating (0 to 100), Velvetleaf: Rate 500 g/ha, visual evaluation after 12 to 14 days
In short: as §1

Sunflower [4] = assay: Test C preemergence; settings: Rate 125 g/ha; scale 0 to 100, 0 no effect, 100 complete control
[5] = tested on: goosegrass (Eleusine indica); assay: Test C preemergence; settings: for Plant response rating (0 to 100), Goosegrass: visual evaluation after 12 to 14 days
In short: as §1

[6] = tested on: giant foxtail (Setaria faberii); assay: Test C preemergence; settings: for Plant response rating (0 to 100), Foxtail, Giant: visual evaluation after 12 to 14 days
In short: as §1

[7] = tested on: Surinam grass (Brachiaria decumbens); assay: Test C preemergence; settings: for Plant response rating (0 to 100), Surinam grass: visual evaluation after 12 to 14 days
In short: as §1

[8] = tested on: morningglory (Ipomoea hederacea); assay: Test C preemergence; settings: for Plant response rating (0 to 100), Morningglory: Rate 500 g/ha, visual evaluation after 12 to 14 days
In short: as §1

[9] = tested on: bermudagrass (Cynodon dactylon); assay: Test C preemergence; settings: for Plant response rating (0 to 100 where 0 is no effect and 100 is complete control), Bermudagrass: visual evaluation after 12 to 14 days
In short: as §1

[10] = tested on: common ragweed (Ambrosia elatior); assay: Test C preemergence; settings: for Plant response rating (0 to 100), Ragweed, Common: Rate 500 g/ha, visual evaluation after 12 to 14 days
In short: as §1

[11] = tested on: crabgrass (Digitaria sanguinalis); assay: Test B preemergence
In short: (§2)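 Seeds were planted and sprayed preemergence with test chemical in a non-phytotoxic solvent mixture containing surfactant; postemergence plants (2 to 18 cm, 1- to 4-leaf stage) received the same formulation. Greenhouse hold 13 to 15 days, then visual rating versus untreated controls on a 0–100 scale (0 no effect, 100 complete control).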

[12] = tested on: cocklebur (Xanthium strumarium); assay: Test B preemergence
In short: as §2

[13] = tested on: velvetleaf (Abutilon theophrasti); assay: Test B preemergence
In short: as §2

[14] = tested on: morning glory (Ipomoea hederacea); assay: Test B preemergence
In short: as §2

rice (Oryza saliva) = assay: Test B preemergence
In short: as §2

[15] = tested on: barnyardgrass (Echinochloa crus-galli); assay: Test B preemergence
In short: as §2

[16] = tested on: giant foxtail (Setaria faberii); assay: Test B preemergence
In short: as §2

[17] = tested on: pigweed (Amaranthus retroflexus); assay: Test B preemergence
In short: as §2

[18] = tested on: Surinam grass (Brachiaria decumbens); assay: Test B preemergence
In short: as §2

[19] = tested on: lambsquarters (Chenopodium album); assay: Test B preemergence
In short: as §2

corn (Zea mays) = assay: Test B preemergence
In short: as §2

Sunflower [20] = assay: Test C preemergence; settings: Rate 500 g/ha, visual evaluation after 12 to 14 days
[21] = Rate 125 g/ha, scale 0 to 100, 0 no effect, 100 complete control
[22] = preemergence, Rate 62 g/ha, scale 0 to 100
[23] = preemergence, Rate 250 g/ha, scale 0 to 100, 0 no effect, 100 complete control
[24] = Preemergence, Rate 500 g/ha, scale 0 to 100, 0 no effect, 100 complete control
[25] = preemergence, Rate 125 g/ha, scale of 0 to 100 where 0 is no effect and 100 is complete control, 13 to 15 days

COc1cc(N2CCC(n3ccc(C(C)C)n3)C2=O)ccc1Cl (stereo not drawn) [Compound 120]
30: Plant response rating (0 to 100), Cocklebur ([2]; preemergence, Rate 500 g/ha) | Plant response rating, Cocklebur [2, 23] | Plant response rating, Rice (rice (Oryza saliva); [24])
20: Plant response rating, Cocklebur [12, 25] | Plant response rating, Velvetleaf [13, 25] | Plant response rating, Rice (rice (Oryza saliva); [25]) | Plant response rating, Corn (corn (Zea mays); [25])
100: Plant response rating, Crabgrass [1, 21] | Plant response rating, Crabgrass [1, 22] | Plant response rating (0 to 100), Crabgrass ([1]; preemergence, Rate 500 g/ha) | Plant response rating, Crabgrass [1, 23] | Plant response rating, Velvetleaf [3, 21] | Plant response rating (0 to 100), Velvetleaf ([3]; preemergence) | Plant response rating, Velvetleaf [3, 23] | Plant response rating, Goosegrass [5, 21] | Plant response rating, Goosegrass [5, 22] | Plant response rating (0 to 100), Goosegrass ([5]; preemergence, Rate 500 g/ha) | Plant response rating, Goosegrass [5, 23] | Plant response rating (0 to 100), Foxtail, Giant ([6]; preemergence, Rate 500 g/ha) | Plant response rating, Surinam grass [7, 21] | Plant response rating (0 to 100), Surinam grass ([7]; preemergence, Rate 500 g/ha) | Plant response rating, Surinam grass [7, 23] | Plant response rating (0 to 100), Morningglory ([8]; preemergence) | Plant response rating, Morningglory [8, 23] | Plant response rating, Bermudagrass [9, 21] | Plant response rating, Bermudagrass [9, 22] | Plant response rating (0 to 100 where 0 is no effect and 100 is complete control), Bermudagrass ([9]; preemergence, Rate 500 g/ha) | Plant response rating, Bermudagrass [9, 23] | Plant response rating, Ragweed, Common [10, 21] | Plant response rating, Ragweed, Common [10, 22] | Plant response rating (0 to 100), Ragweed, Common ([10]; preemergence) | Plant response rating, Ragweed, Common [10, 23] | Plant response rating, Crabgrass [11, 24] | Plant response rating, Crabgrass [11, 25] | Plant response rating, Morningglory [14, 24] | Plant response rating, Barnyardgrass [15, 24] | Plant response rating, Barnyardgrass [15, 25] | Plant response rating, Foxtail, Giant [16, 24] | Plant response rating, Foxtail, Giant [16, 25] | Plant response rating, Pigweed [17, 24] | Plant response rating, Pigweed [17, 25] | Plant response rating, Surinam grass [18, 24] | Plant response rating, Lambsquarters [19, 24] | Plant response rating, Lambsquarters [19, 25] | Plant response rating (0 to 100), Sunflower (Sunflower [20])
90: Plant response rating, Sunflower (Sunflower [4]) | Plant response rating, Surinam grass [7, 22]
80: Plant response rating, Velvetleaf [3, 22]
60: Plant response rating, Foxtail, Giant [6, 23] | Plant response rating, Morningglory [8, 21] | Plant response rating, Morningglory [8, 22]
40: Plant response rating, Cocklebur [12, 24] | Plant response rating, Velvetleaf [13, 24] | Plant response rating, Surinam grass [18, 25]
70: Plant response rating, Morningglory [14, 25]
0: Plant response rating, Cocklebur [2, 21] | Plant response rating, Cocklebur [2, 22]
50: Plant response rating, Foxtail, Giant [6, 21] | Plant response rating, Foxtail, Giant [6, 22] | Plant response rating, Corn (corn (Zea mays); [24])

COc1cccc(N2CCC(n3ccc(C(C)(C)C)n3)C2=O)c1 (stereo not drawn) [Compound 87]
20: Plant response rating (0 to 100), Velvetleaf ([3]; preemergence) | Plant response rating, Sunflower (Sunflower [4])
10: Plant response rating, Velvetleaf [3, 21] | Plant response rating, Velvetleaf [3, 22] | Plant response rating, Velvetleaf [3, 23]
0: Plant response rating, Cocklebur [2, 21] | Plant response rating, Cocklebur [2, 22] | Plant response rating (0 to 100), Cocklebur ([2]; preemergence, Rate 250 g/ha) | Plant response rating (0 to 100), Cocklebur ([2]; preemergence, Rate 500 g/ha) | Plant response rating, Morningglory [8, 21] | Plant response rating, Morningglory [8, 22] | Plant response rating (0 to 100), Morningglory ([8]; preemergence) | Plant response rating, Morningglory [8, 23] | Plant response rating, Ragweed, Common [10, 21] | Plant response rating, Ragweed, Common [10, 22] | Plant response rating (0 to 100), Ragweed, Common ([10]; preemergence) | Plant response rating, Ragweed, Common [10, 23] | Plant response rating, Cocklebur [12, 24] | Plant response rating, Cocklebur [12, 25] | Plant response rating, Velvetleaf [13, 24] | Plant response rating, Velvetleaf [13, 25] | Plant response rating, Morningglory [14, 24] | Plant response rating, Morningglory [14, 25]
100: Plant response rating, Crabgrass [1, 21] | Plant response rating, Crabgrass [1, 22] | Plant response rating (0 to 100), Crabgrass ([1]; preemergence, Rate 250 g/ha) | Plant response rating (0 to 100), Crabgrass ([1]; preemergence, Rate 500 g/ha) | Plant response rating, Goosegrass [5, 21] | Plant response rating, Goosegrass [5, 22] | Plant response rating (0 to 100), Goosegrass ([5]; preemergence, Rate 250 g/ha) | Plant response rating (0 to 100), Goosegrass ([5]; preemergence, Rate 500 g/ha) | Plant response rating, Foxtail, Giant [6, 21] | Plant response rating (0 to 100), Foxtail, Giant ([6]; preemergence, Rate 250 g/ha) | Plant response rating (0 to 100), Foxtail, Giant ([6]; preemergence, Rate 500 g/ha) | Plant response rating, Surinam grass [7, 21] | Plant response rating (0 to 100), Surinam grass ([7]; preemergence, Rate 250 g/ha) | Plant response rating (0 to 100), Surinam grass ([7]; preemergence, Rate 500 g/ha) | Plant response rating, Bermudagrass [9, 21] | Plant response rating, Bermudagrass [9, 22] | Plant response rating (0 to 100 where 0 is no effect and 100 is complete control), Bermudagrass ([9]; preemergence, Rate 250 g/ha) | Plant response rating (0 to 100 where 0 is no effect and 100 is complete control), Bermudagrass ([9]; preemergence, Rate 500 g/ha) | Plant response rating, Crabgrass [11, 24] | Plant response rating, Crabgrass [11, 25] | Plant response rating, Rice (rice (Oryza saliva); [24]) | Plant response rating, Barnyardgrass [15, 24] | Plant response rating, Barnyardgrass [15, 25] | Plant response rating, Foxtail, Giant [16, 24] | Plant response rating, Foxtail, Giant [16, 25] | Plant response rating, Pigweed [17, 24] | Plant response rating, Pigweed [17, 25] | Plant response rating, Surinam grass [18, 24] | Plant response rating, Lambsquarters [19, 24] | Plant response rating, Lambsquarters [19, 25]
70: Plant response rating, Rice (rice (Oryza saliva); [25])
60: Plant response rating, Corn (corn (Zea mays); [24])
30: Plant response rating, Foxtail, Giant [6, 22] | Plant response rating, Corn (corn (Zea mays); [25]) | Plant response rating (0 to 100), Sunflower (Sunflower [20])
80: Plant response rating, Surinam grass [18, 25]
40: Plant response rating, Surinam grass [7, 22]

CCC(C)c1ccn(C2CCN(c3cccc(OC)c3)C2=O)n1 (stereo not drawn) [Compound 95]
0: Plant response rating, Cocklebur [2, 21] | Plant response rating, Cocklebur [2, 22] | Plant response rating (0 to 100), Cocklebur ([2]; preemergence, Rate 500 g/ha) | Plant response rating, Cocklebur [2, 23] | Plant response rating, Velvetleaf [3, 21] | Plant response rating, Velvetleaf [3, 22] | Plant response rating (0 to 100), Velvetleaf ([3]; preemergence) | Plant response rating, Velvetleaf [3, 23] | Plant response rating, Sunflower (Sunflower [4]) | Plant response rating, Foxtail, Giant [6, 21] | Plant response rating, Foxtail, Giant [6, 22] | Plant response rating, Foxtail, Giant [6, 23] | Plant response rating, Morningglory [8, 21] | Plant response rating, Morningglory [8, 22] | Plant response rating (0 to 100), Morningglory ([8]; preemergence) | Plant response rating, Morningglory [8, 23] | Plant response rating, Ragweed, Common [10, 21] | Plant response rating, Ragweed, Common [10, 22] | Plant response rating, Ragweed, Common [10, 23] | Plant response rating, Cocklebur [12, 25] | Plant response rating, Velvetleaf [13, 25] | Plant response rating, Morningglory [14, 25]
10: Plant response rating (0 to 100), Ragweed, Common ([10]; preemergence) | Plant response rating (0 to 100), Sunflower (Sunflower [20])
60: Plant response rating, Cocklebur [12, 24] | Plant response rating, Morningglory [14, 24] | Plant response rating, Surinam grass [18, 25]
100: Plant response rating, Crabgrass [1, 21] | Plant response rating, Crabgrass [1, 22] | Plant response rating (0 to 100), Crabgrass ([1]; preemergence, Rate 500 g/ha) | Plant response rating, Crabgrass [1, 23] | Plant response rating, Goosegrass [5, 21] | Plant response rating, Goosegrass [5, 22] | Plant response rating (0 to 100), Goosegrass ([5]; preemergence, Rate 500 g/ha) | Plant response rating, Goosegrass [5, 23] | Plant response rating (0 to 100), Foxtail, Giant ([6]; preemergence, Rate 500 g/ha) | Plant response rating (0 to 100), Surinam grass ([7]; preemergence, Rate 500 g/ha) | Plant response rating, Bermudagrass [9, 21] | Plant response rating, Bermudagrass [9, 22] | Plant response rating (0 to 100 where 0 is no effect and 100 is complete control), Bermudagrass ([9]; preemergence, Rate 500 g/ha) | Plant response rating, Bermudagrass [9, 23] | Plant response rating, Crabgrass [11, 24] | Plant response rating, Crabgrass [11, 25] | Plant response rating, Rice (rice (Oryza saliva); [24]) | Plant response rating, Barnyardgrass [15, 24] | Plant response rating, Foxtail, Giant [16, 24] | Plant response rating, Foxtail, Giant [16, 25] | Plant response rating, Pigweed [17, 24] | Plant response rating, Pigweed [17, 25] | Plant response rating, Lambsquarters [19, 24] | Plant response rating, Lambsquarters [19, 25]
20: Plant response rating, Corn (corn (Zea mays); [25])
40: Plant response rating, Surinam grass [7, 21] | Plant response rating, Surinam grass [7, 22]
90: Plant response rating, Rice (rice (Oryza saliva); [25]) | Plant response rating, Barnyardgrass [15, 25] | Plant response rating, Surinam grass [18, 24]
50: Plant response rating, Surinam grass [7, 23] | Plant response rating, Velvetleaf [13, 24] | Plant response rating, Corn (corn (Zea mays); [24])
